Experimental data taken from article PMC7587333, “Synthesis, Molecular Docking, and In Vitro Boron Neutron Capture Therapy Assay of Carboranyl Sinomenine” (Molecules, 2020).
Like-named read-outs stand apart in the source and are kept apart here.

What was measured:
rat C6 glioma cells [1] = system: rat C6 glioma cells; set-up: method as in PMID 31260876; conditions: cited from earlier work
malignant cells = conditions: background statement, no reference given; cited from earlier work
rat FLS cells [2] = system: rat FLS cells; set-up: method as in PMID 15980490; conditions: cited from earlier work
[3] = Solubility in organic solvents; assay type: physicochemical; conditions: organic solvents such as DMF, THF and DMSO
Text: Carboranyl sinomenine product was synthesized by a straightforward method as shown in Scheme 1. In this process, sinomenine anion was generated in situ from the reaction of sinomenine (1) with the excess quantity of potassium carbonate in N,N-dimethyl formide (DMF) solvent at room temperature under argon atmosphere. The resulting sinomenine anion reacted with 4-(methyl-ortho-carboranyl)-n-butyl iodide (2), prepared according to the literature method, to produce the carboranyl sinomenine (3) as a colorless solid in 54.3% yield after recrystallization from tetrahydrofuran (THF) solvent.

[4] = system: rat fibroblast-like synoviocytes (FLS) cells; assay: In vitro survival study (BNCS, thermal neutron irradiation, colony formation), FLS cells; assay type: cell-based; conditions: same operating conditions as L-BPA
Text: (§1) The preliminary in vitro killing effects of compound 3 were examined by using rat C6 gliosarcoma tumor cells and fibroblast-like synoviocytes (FLS) cells, respectively. The in vitro survival study was completed with the thermal neutron fluence ranging from 0 to 4.2 × 10^12 n/cm^2. The γ-ray dose presented in the experiment was monitored by thermoluminescent dosimeters (TLDs) attached to the tubes and ranged from 0 to 5 Sv. […] A low surviving fraction of around 0.01 was obtained by compound 3 after irradiation for 50 min.
(§2) The in vitro assessments were carried out according to methods reported in the literature. […] The inability of cells to adhere to Teflon allows precise quantitative manipulation of cells without trypsinization. […] The thermal neutron fluence was determined by averaging the activity of two gold films symmetrically attached to the Teflon tube surface along the thermal neutron axis. […] The neutron absorbed dose (Gy) was calculated using the flux-to-dose conversion factor [39, 40]. […] The γ-ray dose was monitored by thermoluminescent dosimeters (TLDs) (Kyoto, Japan) attached to the tubes, and it ranged from 0 to 5 Sv. […] The colonies were fixed and stained with a 10% formaldehyde/1% toluidine blue solution and then counted microscopically.
(§3) The in vitro BNCS was carried out in triplicate. […] The significance of the differences in survival rates was assessed by Student’s t-test. […]

rat C6 glioma cells [5] = assay: Uptake of boron by rat C6 glioma cells (ICP-AES); assay type: cell-based; conditions: 24 h culture with boron agent
Text: (§4) The rat C6 glioma cells and fibroblast-like synoviocytes (FLS) cells were used to conduct the boron uptake of 3. The boron uptakes of clinically used L-BPA and BSH were also listed for comparation. The results reveal that 3 was able to permeate both C6 glioma cells and FLS cells. […] The higher membrane permeability provides enhanced boron concentration in the cell lines. […] Nevertheless, the detailed mechanism of 3 crossing cell membrane warrants further investigation.
(§5) According to literature, 3.7 × 10^8 rat FLS cells or 2.6 × 10^7 rat C6 glioma cells were seeded and cultured at […] (37 °C, 5% CO2) for 24 hrs. This culture fluid was removed therefrom by suction, culture fluids containing 1.5 mM of boron agent 3 with the boron concentrations of 3.0 mM, 1.5 mM, 18.0 mM, and 1.5 mM, respectively, were added and continued culturing for 24 h under the same conditions. These culture fluids were removed by suction and the cells were washed three times with PBS and treated with trypsin to recover the cells. The number of cells recovered was counted, and HNO3 (2N, 1.5 mL) was added and the resulting mixture was heated at 80 °C for 12 h. After filtering using a membrane filter, the boron concentration was determined by ICP-AES (Singapore).

rat FLS cells [6] = assay: Cytotoxicity study, standard MTT assay; assay type: cell-based; conditions: 3 days of continuous exposure, no irradiation, read-out: IC50 (growth inhibition, cytotoxicity)
Procedure: The IC50 (moles/liter, M), the concentration that inhibited the growth of rat FLS cells by 50% after 3 days of continuous exposure, was determined using the standard MTT assay. Suspensions of 4.9 × 10^5 of rat fibroblast-like synoviocytes cells /200 μL MEM containing 20% FCS were incubated for 3 days using 96-well culture plates with various concentrations of the samples in dimethyl sulfoxide (DMSO). The damaged cells were detected at 490 nm optical absorbance by Aqueous One Solution Cell Proliferation Assay.
Figure S-4. 1H NMR of 3 in DMSO-d6.
2. Cytotoxicity study. For IC50 analysis, the standard MTT method was used to analyze IC50 of compound 3. The IC50 determinations were performed in the presence of serial dilutions of inhibitor (1000 μM to 3.906 µM, 1% DMSO, final) in complete reaction buffer and incubated for […].
Figure S-5. IC50 dose responsive curve of 3 for rat FLS cells. […]

rat C6 gliosarcoma cells = assay: In vitro survival study (BNCT, thermal neutron irradiation, colony formation), C6 cells; assay type: cell-based; conditions: C6 gliosarcoma tumor cells
Text: as §1, §2, §3

rat FLS cells [7] = assay: Uptake of boron by rat fibroblast-like synoviocytes cells (ICP-AES); assay type: cell-based; conditions: 24 h culture with boron agent
Text: as §4, §5

Compound | Boron amounts delivered to the cells (rat C6 glioma cells [1]) | Concentration in malignant cells relative to blood and other healthy cells (malignant cells) | Boron amounts delivered to the cells (rat FLS cells [2]) | Solubility [3] | Killing effects enhanced compared with L-BPA [4] | Boron amounts delivered to the cells (rat C6 glioma cells [5]) [μg/10^7 cells] | IC50 (rat FLS cells [6]) [µM] | Surviving fraction (rat C6 gliosarcoma cells; after thermal neutron irradiation for 50 min) | Killing effect improved compared with L-BPA (rat C6 gliosarcoma cells; thermal neutron irradiation, same operating conditions as L-BPA) | Boron amounts delivered to the cells (rat FLS cells [7]) [μg/10^7 cells]
N[C@@H](Cc1ccc(B(O)O)cc1)C(=O)O [L-BPA, 4-borono-L-phenylalanine] | 0.67 [21] μg/10^7 cells | 2–4 times | 0.74 [31] μg/10^7 cells | – | – | – | – | – | – | –
methylcarboranyl-n-butyl sinomenine [Compound 3] | – | – | – | soluble in various organic solvents | approximately three times | 4.25 | 310.4 ± 0.3 | around 0.01 | approximately nine times | 3.04
sodium borocaptate [BSH] | 2.14 [21] μg/10^7 cells | – | 1.82 [31] μg/10^7 cells | – | – | – | – | – | – | –
